Test results as given in patent US8946203B2, “Benzodioxane inhibitors of leukotriene production” (Boehringer Ingelheim International GmbH, priority 2012, dated 2015).
Counter-ions that a name gives are not always drawn. Like-named read-outs stand apart in the source and are kept apart here.

Columns and labels:
human LTA4 hydrolase = biological target: T1, human LTA4 hydrolase (Homo sapiens, UniProt P09960); assay: LTA4H Enzyme assay (cleavage of Arg-AMC, fluorescence); assay type: biochemical
T1 sequence (P09960 1-611): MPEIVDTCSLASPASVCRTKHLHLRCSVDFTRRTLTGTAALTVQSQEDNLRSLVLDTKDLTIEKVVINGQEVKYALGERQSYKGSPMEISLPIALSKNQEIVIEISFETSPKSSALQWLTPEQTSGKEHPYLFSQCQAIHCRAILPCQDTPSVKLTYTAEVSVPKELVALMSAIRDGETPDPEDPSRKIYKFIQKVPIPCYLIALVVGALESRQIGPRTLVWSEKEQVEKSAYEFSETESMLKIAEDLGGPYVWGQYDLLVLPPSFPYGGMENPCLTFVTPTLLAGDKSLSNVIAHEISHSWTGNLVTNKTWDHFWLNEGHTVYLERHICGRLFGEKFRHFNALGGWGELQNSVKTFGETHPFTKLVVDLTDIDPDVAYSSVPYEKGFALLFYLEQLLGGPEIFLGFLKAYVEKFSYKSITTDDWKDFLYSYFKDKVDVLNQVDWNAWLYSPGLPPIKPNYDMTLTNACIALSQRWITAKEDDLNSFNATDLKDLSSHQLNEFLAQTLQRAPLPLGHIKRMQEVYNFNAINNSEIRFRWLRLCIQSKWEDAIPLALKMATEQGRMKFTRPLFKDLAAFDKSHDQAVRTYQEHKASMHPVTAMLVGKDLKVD
Procedure, shortened: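 Peptidase activity of human LTA4H (1 nM final) on Arg-AMC (50 μM final), with compound, 1 h at room temperature. Buffer: 50 mM Tris-HCl pH 7.5, 100 mM KCl, 0.5% BSA.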

[1] = tested on: synthesis of LTB4 in human whole blood; assay: human whole blood (HWB) assay, LTB4 production inhibition after calcimycin stimulation; assay type: cell-based; details: heparinized human whole blood, calcimycin 20 μM, plasma LTB4 by HTRF
Procedure, shortened: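 Heparinized human whole blood preincubated with compound 15 min at 37 °C, then stimulated with 20 μM (final) calcimycin for 30 min at 37 °C. Plasma LTB4 measured by antibody-based HTRF; IC50 reported.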

[2] = LTA4H Enzyme 1 nM, Arg-AMC substrate 50 μM, room temperature 1 h, fluorescence, read-out: IC50 values of LTA4H Enzyme assay

Compound	IC50 (human LTA4 hydrolase; [2]) [nM]	IC50 [1] [nM]	IC50 (human LTA4 hydrolase) [nM]
O=C(O)C1CCC(C2CCN(Cc3ccc([C@H]4COc5cccnc5O4)cc3)CC2)CC1 (stereo partly drawn) [Example 265, 4-{1-[(S)-4-(2,3-Dihydro-[1,4]dioxino[2,3-b]pyridin-3-yl)-benzyl]-piperidin-4-yl}-cyclohexanecarboxylic acid]	0.16	150	–
O=C(CO)N1C[C@@H]2C[C@H]1CN2Cc1ccc([C@H]2COc3cccnc3O2)cc1 [Example 277, 1-{(1S,4S)-5-[(S)-4-(2,3-Dihydro-[1,4]dioxino[2,3-b]pyridin-3-yl)-benzyl]-2,5-diaza-bicyclo[2.2.1]hept-2-yl}-2-hydroxy-ethanone]	0.3	65	–
CONC(=O)CC1CCN(Cc2ccc([C@H]3COc4cccnc4O3)cc2)CC1 [Example 260, 2-{1-[(S)-4-(2,3-Dihydro-[1,4]dioxino[2,3-b]pyridin-3-yl)-benzyl]-piperidin-4-yl}-N-methoxy-acetamide]	0.57	100	–
c1cncc(OC2CCN(Cc3ccc([C@H]4COc5cccnc5O4)cc3)CC2)c1 [Example 293, (S)-3-{4-[4-(Pyridin-3-yloxy)-piperidin-1-ylmethyl]-phenyl}-2,3-dihydro-[1,4]dioxino[2,3-b]pyridine]	0.24	52	–
CC(C)(C(=O)O)C1CCN(Cc2ccc([C@H]3COc4ccccc4O3)cc2)CC1 [Example 229, 2-{1-[(S)-4-(2,3-Dihydro-benzo[1,4]dioxin-2-yl)-benzyl]-piperidin-4-yl}-2-methyl-propionic acid formate salt]	3.85	290	–
O=C(CO)N1CCN(Cc2ccc([C@H]3COc4cccnc4O3)cc2)CC1 [Example 253, 1-{4-[(S)-4-(2,3-Dihydro-[1,4]dioxino[2,3-b]pyridin-3-yl)-benzyl]-piperazin-1-yl}-2-hydroxy-ethanone]	0.7	110	–
COCC(=O)NC1CCN(Cc2ccc([C@H]3COc4ccccc4O3)cc2)CC1 [Example 219, N-(1-{4-[(2S)-2,3-dihydro-1,4-benzodioxin-2-yl]benzyl}piperidin-4-yl)-2-methoxyacetamide]	0.49	149	–
O=C1OC[C@H]2CN(Cc3ccc([C@H]4COc5cccnc5O4)cc3)CCN12 [Example 285, (R)-7-[(S)-4-(2,3-Dihydro-[1,4]dioxino[2,3-b]pyridin-3-yl)-benzyl]-hexahydro-oxazolo[3,4-a]pyrazin-3-one]	1	200	–
CC(=O)N1CC[C@@H](NCc2ccc([C@H]3COc4ccccc4O3)cc2)C1 [Example 64, 1-[(3R)-3-({4-[(2S)-2,3-dihydro-1,4-benzodioxin-2-yl]benzyl}amino)pyrrolidin-1-yl]ethanone]	0.83	158	–
CC(=O)N1CC2CCC(C1)N2Cc1ccc([C@H]2COc3cccnc3O2)cc1 [Example 271, 1-{8-[(S)-4-(2,3-Dihydro-[1,4]dioxino[2,3-b]pyridin-3-yl)-benzyl]-3,8-diaza-bicyclo[3.2.1]oct-3-yl}-ethanone]	0.65	110	–
CS(=O)(=O)CC(=O)N1C[C@@H]2C[C@H]1CN2Cc1ccc([C@H]2COc3cccnc3O2)cc1 [Example 256, 1-{(1S,4S)-5-[(S)-4-(2,3-Dihydro-[1,4]dioxino[2,3-b]pyridin-3-yl)-benzyl]-2,5-diaza-bicyclo[2.2.1]hept-2-yl}-2-methanesulfonyl-ethanone]	0.49	110	–
O=S1(=O)CCCN(Cc2ccc([C@H]3COc4cccnc4O3)cc2)CC1 [Example 275, (S)-3-[4-(1,1-Dioxo-1lambda6-[1,4]thiazepan-4-ylmethyl)-phenyl]-2,3-dihydro-[1,4]dioxino[2,3-b]pyridine]	0.7	170	–
CN(Cc1ccc([C@H]2COc3ccccc3O2)cc1)C(C)(C)C [Example 81, N-{4-[(2S)-2,3-dihydro-1,4-benzodioxin-2-yl]benzyl}-N,2-dimethylpropan-2-amine]	0.31	81	–
NC(=O)N[C@H]1C[C@H]2CC[C@@H](C1)N2Cc1ccc([C@H]2COc3cccnc3O2)cc1 [Example 259, {(endo)-8-[(S)-4-(2,3-Dihydro-[1,4]dioxino[2,3-b]pyridin-3-yl)-benzyl]-8-aza-bicyclo[3.2.1]oct-3-yl}-urea]	–	790	0.3
O=C1NCCCC12CCN(Cc1ccc([C@H]3COc4ccccc4O3)cc1)CC2 [Example 116, 9-{4-[(2S)-2,3-dihydro-1,4-benzodioxin-2-yl]benzyl}-2,9-diazaspiro[5.5]undecan-1-one]	0.82	310	–
CC(=O)N(C)C1CCN(Cc2ccc([C@H]3COc4ccccc4O3)cc2)C1 (stereo partly drawn) [Example 83, N-(1-{4-[(2S)-2,3-dihydro-1,4-benzodioxin-2-yl]benzyl}pyrrolidin-3-yl)-N-methylacetamide]	0.13	33	–
NC(=O)N1CCN(Cc2ccc([C@H]3COc4cccnc4O3)cc2)CC1 [Example 164, 4-{4-[(3S)-2,3-dihydro[1,4]dioxino[2,3-b]pyridin-3-yl]benzyl}piperazine-1-carboxamide]	0.84	100	–
OC[C@H]1CCCC[C@H]1NCc1ccc([C@H]2COc3ccccc3O2)cc1 [Example 87, [(1S,2R)-2-({4-[(2S)-2,3-dihydro-1,4-benzodioxin-2-yl]benzyl}amino)cyclohexyl]methanol]	0.69	268	–
c1ccc2c(c1)OCC(c1ccc(CN3CCCC3)cc1)O2 (racemic) [Example 1, 1-[4-(2,3-dihydro-1,4-benzodioxin-2-yl)benzyl]pyrrolidine]	0.38	179	–
c1cnc2c(c1)OC[C@H](c1ccc(CN3CCn4cnnc4C3)cc1)O2 [Example 156, (3S)-3-[4-(5,6-dihydro[1,2,4]triazolo[4,3-a]pyrazin-7(8H)-ylmethyl)phenyl]-2,3-dihydro[1,4]dioxino[2,3-b]pyridine]	0.91	159	–
CS(=O)(=O)NC[C@@H]1[C@H]2CN(Cc3ccc([C@H]4COc5cccnc5O4)cc3)C[C@@H]12 [Example 263, N-{(1α,5α,6α)-3-[(S)-4-(2,3-Dihydro-[1,4]dioxino[2,3-b]pyridin-3-yl)-benzyl]-3-aza-bicyclo[3.1.0]hex-6-ylmethyl}-methanesulfonamide]	0.49	130	–
c1cnc2c(c1)OCC(c1ccc(CN3CCOCC3)cc1)O2 (racemic) [Example 18, 3-[4-(morpholin-4-ylmethyl)phenyl]-2,3-dihydro[1,4]dioxino[2,3-b]pyridine]	1.14	176	–
NC(=O)NCC1CCN(Cc2ccc([C@H]3COc4cccnc4O3)cc2)CC1 [Example 283, {1-[(S)-4-(2,3-Dihydro-[1,4]dioxino[2,3-b]pyridin-3-yl)-benzyl]-piperidin-4-ylmethyl}-urea]	0.36	540	–
CC(=O)N1CC2CN(Cc3ccc([C@H]4COc5cccnc5O4)cc3)CC2C1 (stereo partly drawn) [Example 270, 1-{5-[(S)-4-(2,3-Dihydro-[1,4]dioxino[2,3-b]pyridin-3-yl)-benzyl]-hexahydro-pyrrolo[3,4-c]pyrrol-2-yl}-ethanone]	0.14	35	–
CC1CCCCN1Cc1ccc([C@H]2COc3ccccc3O2)cc1 (stereo partly drawn) [Example 68, 1-{4-[(2S)-2,3-dihydro-1,4-benzodioxin-2-yl]benzyl}-2-methylpiperidine]	0.1	81	–
